Here are results for 22 compounds from patent US9423396B2, “Bodipy structure fluorescence probes for diverse biological applications” (National University of Singapore, priority 2011, dated 2016).

This data set is described as follows: Spectroscopic measurements (absorption, emission, quantum yield, extinction coefficient). The data set is classed as physicochemical.
The mark [1] stands for this setting: BDNCA library, difference emission minus absorption.
Setting [2] is: BDNCA library, extinction coefficient; in M-1 cm-1 (unit assumed).
The mark [3] stands for this setting: BDNCA library, fluorescence emission.
Where [4] appears, read: absorption maximum, BDNCA library.
Setting [5] is: difference of emission and absorption maxima.
Setting [6] is: extinction coefficient, BDNCA library; in M-1 cm-1 (unit assumed).
Where [7] appears, read: fluorescence emission maximum, BDNCA library.

Each structure is given as a SMILES string.

As for `CC1=CC(/C=C/c2ccc(Cl)cc2Cl)=[N+]2C1=C(c1ccc(NC(=O)CCl)cc1)c1cccn1[B-]2(F)F` [BDNCA-147], the “Qunt. Yield” value (BDNCA library) came to 0.07. Besides, for the setting “BDNCA library, absorption”, the Abs came to 557 nm. Moreover, the Flu-Abs under setting [1] worked out at 21. Besides, the ε under setting [2] was 23,616. Under setting [3], this compound returned a Flu of 578.
`CC1=CC(/C=C/c2c3ccccc3c(C)c3ccccc23)=[N+]2C1=C(c1ccc(NC(=O)CCl)cc1)c1cccn1[B-]2(F)F` [BDNCA-340] gave an Abs under setting [4] of 532 nm. The same compound yielded a Flu-Abs under setting [5] of 17. The ε under setting [6] is 36,247. Further, under setting [7], the Flu was determined as 549. The “Qunt. Yield” value (quantum yield, BDNCA library) is listed as 0.04.
For the compound `CC(=O)Nc1ccc(/C=C/C2=[N+]3C(=C(c4ccc(NC(=O)CCl)cc4)c4cccn4[B-]3(F)F)C(C)=C2)cc1` [BDNCA-111], the “Qunt. Yield” value (BDNCA library) is listed as 0.04. Moreover, the Abs (BDNCA library, absorption) came out at 570 nm. Under setting [1], this compound gave a Flu-Abs of 29. Moreover, under setting [2], the ε is 18,947. Under setting [3], the Flu was 599.
On the same counts, the results for `CCc1ccc(/C=C/C2=[N+]3C(=C(c4ccc(NC(=O)CCl)cc4)c4cccn4[B-]3(F)F)C(C)=C2)cc1[N+](=O)[O-]` [BDNCA-252] are 0.08, 556 nm, 20, 57,666 and 576.
On the same counts, the results for `COc1ccc2c(OC)ccc(/C=C/C3=[N+]4C(=C(c5ccc(NC(=O)CCl)cc5)c5cccn5[B-]4(F)F)C(C)=C3)c2c1` [BDNCA-70] are 0.04, 587 nm, 90, 29,931 and 677.
The corresponding values for `CC1=CC(/C=C/c2ccc(Oc3ccccc3)cc2)=[N+]2C1=C(c1ccc(NC(=O)CCl)cc1)c1cccn1[B-]2(F)F` [BDNCA-101] are 0.20, 562 nm, 27, 89,245 and 589.
For `CC1=CC(/C=C/c2ccc(OC(F)(F)F)cc2)=[N+]2C1=C(c1ccc(NC(=O)CCl)cc1)c1cccn1[B-]2(F)F` [BDNCA-68], the “Qunt. Yield” value (BDNCA library) worked out at 0.05. The Abs (BDNCA library, absorption) was 553 nm. This compound registered a Flu-Abs under setting [1] of 20. Further, under setting [2], the ε is 27,735. This compound displayed a Flu under setting [3] of 573.
The corresponding values for `Cc1cc(/C=C/c2ccccc2OC(F)F)n2c1C(c1ccc(NC(=O)CCl)cc1)=C1C=CC=[N+]1[B-]2(F)F` [BDNCA-240] are 0.08, 554 nm, 19, 47,506 and 573.
The corresponding values for `COc1cc2ccccc2c(/C=C/C2=[N+]3C(=C(c4ccc(NC(=O)CCl)cc4)c4cccn4[B-]3(F)F)C(C)=C2)c1OC` [BDNCA-301] are 0.24, 567 nm, 36, 85,950 and 603.
Where the note is “BDNCA library, absorption”, `CC1=CC(/C=C/c2ccc(N(c3ccccc3)c3ccccc3)cc2)=[N+]2C1=C(c1ccc(NC(=O)CCl)cc1)c1cccn1[B-]2(F)F` [BDNCA-14] registered an Abs of 599 nm. Further, the ε under setting [2] is on record as 35,149.
Take `CC1=CC(/C=C/c2cccs2)=[N+]2C1=C(c1ccc(NC(=O)CCl)cc1)c1cccn1[B-]2(F)F` [BDNCA-423]: under setting [4], the Abs was 569 nm. Under setting [5], this compound displayed a Flu-Abs of 25. Moreover, the ε under setting [6] was 61,510. Also, the Flu under setting [7] was 594. In addition, the “Qunt. Yield” value (quantum yield, BDNCA library) stood at 0.10.
`Cc1cc(/C=C/c2ccc(Oc3ccc(Cl)cc3)cc2)n2c1C(c1ccc(NC(=O)CCl)cc1)=C1C=CC=[N+]1[B-]2(F)F` [BDNCA-277]: the “Qunt. Yield” value (BDNCA library) was 0.15. The compound further showed an Abs (BDNCA library, absorption) of 561 nm. Further, under setting [1], the Flu-Abs was determined as 24. For the same compound, the ε under setting [2] is 65,080. The compound further yielded a Flu under setting [3] of 585.
On the same counts, the results for `COc1cccc(F)c1/C=C/C1=[N+]2C(=C(c3ccc(NC(=O)CCl)cc3)c3cccn3[B-]2(F)F)C(C)=C1` [BDNCA-254] are 0.09, 559 nm, 22, 56,018 and 581.
The compound `CC1=CC(/C=C/C2CCCCC2)=[N+]2C1=C(c1ccc(NC(=O)CCl)cc1)c1cccn1[B-]2(F)F` [BDNCA-414] registered an Abs under setting [4] of 524 nm. The same compound showed a Flu-Abs under setting [5] of 23. For the same compound, the ε under setting [6] is given as 49,428. Further, the Flu under setting [7] is given as 547. Further, where the note is “quantum yield, BDNCA library”, the “Qunt. Yield” value came to 0.09.
Take `CC1=CC(/C=C/c2ccc(OC(C)(C)C)cc2)=[N+]2C1=C(c1ccc(NC(=O)CCl)cc1)c1cccn1[B-]2(F)F` [BDNCA-75]: the “Qunt. Yield” value (BDNCA library) is 0.09. The same compound came in with an Abs (BDNCA library, absorption) of 562 nm. The Flu-Abs under setting [1] is on record as 38. For the same compound, the ε under setting [2] is reported as 35,973. Besides, under setting [3], the Flu stood at 600.
The corresponding values for `CC1=CC(/C=C/c2ccc(-c3ccccn3)cc2)=[N+]2C1=C(c1ccc(NC(=O)CCl)cc1)c1cccn1[B-]2(F)F` [BDNCA-88] are 0.11, 566 nm, 18, 27,185 and 584.
For `COc1cc(/C=C/C2=[N+]3C(=C(c4ccc(NC(=O)CCl)cc4)c4cccn4[B-]3(F)F)C(C)=C2)cc(Cl)c1O` [BDNCA-29], under “BDNCA library”, the “Qunt. Yield” value stood at 0.01. Further, the Abs (BDNCA library, absorption) amounted to 567 nm. Under setting [1], this compound yielded a Flu-Abs of 30. Besides, the ε under setting [2] is given as 25,812. Under setting [3], the Flu turned out to be 597.
Consider `CC1=CC(/C=C/c2ccc(-c3ccc(Br)cc3)o2)=[N+]2C1=C(c1ccc(NC(=O)CCl)cc1)c1cccn1[B-]2(F)F` [BDNCA-428], for which the Abs under setting [4] was found to be 506 nm. This compound also showed a Flu-Abs under setting [5] of 151. For the same compound, under setting [6], the ε is reported as 17,025. This compound gave a Flu under setting [7] of 657. Moreover, the “Qunt. Yield” value (quantum yield, BDNCA library) is given as 0.02.
`CC1=CC(/C=C/c2ccc(C)o2)=[N+]2C1=C(c1ccc(NC(=O)CCl)cc1)c1cccn1[B-]2(F)F` [BDNCA-135]: for the setting “BDNCA library”, the “Qunt. Yield” value is on record as 0.07. Under “BDNCA library, absorption”, the Abs amounted to 577 nm. Also, the Flu-Abs under setting [1] stood at 41. The ε under setting [2] was 37,346. Also, the Flu under setting [3] is listed as 618.
`CC1=CC(/C=C/c2cc(Cl)ccc2O)=[N+]2C1=C(c1ccc(NC(=O)CCl)cc1)c1cccn1[B-]2(F)F` [BDNCA-121]: for the setting “BDNCA library”, the “Qunt. Yield” value is recorded as 0.06. Also, the Abs (BDNCA library, absorption) came to 564 nm. This compound returned a Flu-Abs under setting [1] of 21. For the same compound, the ε under setting [2] is 39,817. The Flu under setting [3] was found to be 585.
For the compound `COc1cc(/C=C/C2=[N+]3C(=C(c4ccc(NC(=O)CCl)cc4)c4cccn4[B-]3(F)F)C(C)=C2)c(OCc2ccccc2)cc1OC` [BDNCA-223], the “Qunt. Yield” value (BDNCA library) is listed as “weak”. Where the note is “BDNCA library, absorption”, this compound showed an Abs of 583 nm. Under setting [2], the ε is 59,863. Besides, the Flu entry under setting [3] was “weak”.
`CCc1ccccc1/C=C/c1cc(C)c2n1[B-](F)(F)[N+]1=CC=CC1=C2c1ccc(NC(=O)CCl)cc1` [BDNCA-251]: the “Qunt. Yield” value (BDNCA library) is reported as 0.11. Further, the Abs (BDNCA library, absorption) stood at 555 nm. This compound also displayed a Flu-Abs under setting [1] of 23. Besides, the ε under setting [2] is given as 54,096. Under setting [3], this compound returned a Flu of 578.
